Data as given in US20020111274A1, “1-alkyl-3-[1-(substituted phenyl) benzotriazol-6-yl] uracils” (BASF Aktiengesellschaft, priority 2000, published 2002).

Experiments:
Set-up in all cases: scale not given here
[1] = test system: IPOHE Morningglory, Ivyleaf; assay: Preemergence herbicidal evaluation, IPOHE; format: in vivo, Ipomoea hederacea, (L.) Jacq.; details: preemergence
Summary of the method: (§1)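 Compound applied preemergence as an aqueous acetone spray onto freshly planted cups, dose equivalent approx. 0.013 to 0.800 kg/ha. Evaluation by rating at weeks 4–5.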

[2] = test system: ECHOG Barnyardgrass; assay: Preemergence herbicidal evaluation, ECHOG; format: in vivo, Echinochloa crus-galli, (L.) Beau; details: preemergence
Summary of the method: as §1

[3] = test system: GALAP Galium; assay: Preemergence herbicidal evaluation, GALAP; format: in vivo, Galium aparine; details: preemergence
Summary of the method: as §1

[4] = test system: AMBEL Ragweed, Common; assay: Postemergence herbicidal evaluation, AMBEL; format: in vivo, Ambrosia artemisifolia, L.; details: postemergence spray, rated about two-three weeks after treatment
Summary of the method: (§2)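 Two-week-old seedlings sprayed postemergence with compound in 80/20 acetone/water plus 1.0% methylated seed oil, at about 0.006–0.400 kg/ha, through a nozzle at 40 psi. Plants kept under greenhouse conditions and visually rated about two–three weeks after treatment; ratings from repeat tests averaged.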

[5] = test system: SETVI Foxtail, Green; assay: Postemergence herbicidal evaluation, SETVI; format: in vivo, Setaria viridis, (L.) Beau; details: postemergence spray, rated about two-three weeks after treatment
Summary of the method: as §2

[6] = test system: GLXMAW Soybean, Williams; assay: Preemergence herbicidal evaluation, GLXMAW; format: in vivo, Glycine max, (L.) Merr. cv Williams; details: preemergence
Summary of the method: as §1

[7] = test system: GALAP Galium; assay: Postemergence herbicidal evaluation, GALAP; format: in vivo, Galium aparine; details: postemergence spray, rated about two-three weeks after treatment
Summary of the method: as §2

[8] = test system: ZEAMX Corn, Field; assay: Postemergence herbicidal evaluation, ZEAMX; format: in vivo, Zea mays, L. (Sammel-Bezeichnung); details: postemergence spray, rated about two-three weeks after treatment
Summary of the method: as §2

[9] = test system: CHEAL Lambsquarters, Common; assay: Postemergence herbicidal evaluation, CHEAL; format: in vivo, Chenopodium album, L.; details: postemergence spray, rated about two-three weeks after treatment
Summary of the method: as §2

[10] = test system: ABUTH Velvetleaf; assay: Postemergence herbicidal evaluation, ABUTH; format: in vivo, Abutilon theophrasti, Medic.; details: postemergence spray, rated about two-three weeks after treatment
Summary of the method: as §2

[11] = test system: CHEAL Lambsquarters, Common; assay: Preemergence herbicidal evaluation, CHEAL; format: in vivo, Chenopodium album, L.; details: preemergence
Summary of the method: as §1

[12] = test system: SETVI Foxtail, Green; assay: Preemergence herbicidal evaluation, SETVI; format: in vivo, Setaria viridis, (L.) Beau; details: preemergence
Summary of the method: as §1

[13] = test system: GLXMAW Soybean, Williams; assay: Postemergence herbicidal evaluation, GLXMAW; format: in vivo, Glycine max, (L.) Merr. cv Williams; details: postemergence spray, rated about two-three weeks after treatment
Summary of the method: as §2

[14] = test system: AMBEL Ragweed, Common; assay: Preemergence herbicidal evaluation, AMBEL; format: in vivo, Ambrosia artemisifolia, L.; details: preemergence
Summary of the method: as §1

[15] = test system: ZEAMX Corn, Field; assay: Preemergence herbicidal evaluation, ZEAMX; format: in vivo, Zea mays, L. (Sammel-Bezeichnung); details: preemergence
Summary of the method: as §1

[16] = test system: TRZAWR Wheat, Winter, cv Riband; assay: Postemergence herbicidal evaluation, TRZAWR; format: in vivo, Triticum aestivum; details: postemergence spray, rated about two-three weeks after treatment
Summary of the method: as §2

[17] = test system: ECHOG Barnyardgrass; assay: Postemergence herbicidal evaluation, ECHOG; format: in vivo, Echinochloa crus-galli, (L.) Beau; details: postemergence spray, rated about two-three weeks after treatment
Summary of the method: as §2

[18] = test system: ORYSAT Rice, Tebonnet; assay: Preemergence herbicidal evaluation, ORYSAT; format: in vivo, Oryza sativa, (L.); details: preemergence
Summary of the method: as §1

[19] = test system: ABUTH Velvetleaf; assay: Preemergence herbicidal evaluation, ABUTH; format: in vivo, Abutilon theophrasti, Medic.; details: preemergence
Summary of the method: as §1

[20] = test system: TRZAWR Wheat, Winter, cv Riband; assay: Preemergence herbicidal evaluation, TRZAWR; format: in vivo, Triticum aestivum; details: preemergence
Summary of the method: as §1

[21] = test system: CASOB Sicklepod; assay: Postemergence herbicidal evaluation, CASOB; format: in vivo, Cassia obtusifolia, L.; details: postemergence spray, rated about two-three weeks after treatment
Summary of the method: as §2

[22] = test system: IPOHE Morningglory, Ivyleaf; assay: Postemergence herbicidal evaluation, IPOHE; format: in vivo, Ipomoea hederacea, (L.) Jacq.; details: postemergence spray, rated about two-three weeks after treatment
Summary of the method: as §2

[23] = test system: ORYSAT Rice, Tebonnet; assay: Postemergence herbicidal evaluation, ORYSAT; format: in vivo, Oryza sativa, (L.); details: postemergence spray, rated about two-three weeks after treatment
Summary of the method: as §2

[24] = test system: CASOB Sicklepod; assay: Preemergence herbicidal evaluation, CASOB; format: in vivo, Cassia obtusifolia, L.; details: preemergence
Summary of the method: as §1

COc1ccc(-n2nnc3cc(F)c(-n4c(=O)cc(C(F)(F)F)n(C)c4=O)cc32)c(C)c1 [Example 24]
IPOHE herbicidal rating ([1]; rate 0.016 kg/ha): 0.0
IPOHE herbicidal rating ([1]; rate 0.032 kg/ha): 0.0
IPOHE herbicidal rating ([1]; rate 0.062 kg/ha): 0.0
IPOHE herbicidal rating ([1]; rate 0.125 kg/ha): 0.0
ECHCG herbicidal rating ([2]; rate 0.016 kg/ha): 0.0
ECHCG herbicidal rating ([2]; rate 0.032 kg/ha): 0.0
ECHCG herbicidal rating ([2]; rate 0.062 kg/ha): 3.0
ECHCG herbicidal rating ([2]; rate 0.125 kg/ha): 7.0
GALAP herbicidal rating ([3]; rate 0.016 kg/ha): 0.0
GALAP herbicidal rating ([3]; rate 0.032 kg/ha): 0.0
GALAP herbicidal rating ([3]; rate 0.062 kg/ha): 0.0
Postemergence herbicidal rating AMBEL ([4]; 0.008 kg/ha): 0.0
Postemergence herbicidal rating AMBEL ([4]; 0.016 kg/ha): 0.0
Postemergence herbicidal rating AMBEL ([4]; 0.032 kg/ha): 0.0
Postemergence herbicidal rating AMBEL ([4]; 0.062 kg/ha): 2.0
Postemergence herbicidal rating SETVI ([5]; 0.008 kg/ha): 0.0
Postemergence herbicidal rating SETVI ([5]; 0.016 kg/ha): 0.0
Postemergence herbicidal rating SETVI ([5]; 0.032 kg/ha): 0.0
Postemergence herbicidal rating SETVI ([5]; 0.062 kg/ha): 0.0
GLXMAW herbicidal rating ([6]; rate 0.016 kg/ha): 0.0
GLXMAW herbicidal rating ([6]; rate 0.032 kg/ha): 1.0
GLXMAW herbicidal rating ([6]; rate 0.062 kg/ha): 2.0
GLXMAW herbicidal rating ([6]; rate 0.125 kg/ha): 5.0
Postemergence herbicidal rating GALAP ([7]; 0.008 kg/ha): 0.0
Postemergence herbicidal rating GALAP ([7]; 0.016 kg/ha): 1.0
Postemergence herbicidal rating GALAP ([7]; 0.032 kg/ha): 2.0
Postemergence herbicidal rating GALAP ([7]; 0.062 kg/ha): 3.0
Postemergence herbicidal rating ZEAMX ([8]; 0.008 kg/ha): 3.5
Postemergence herbicidal rating ZEAMX ([8]; 0.016 kg/ha): 3.5
Postemergence herbicidal rating ZEAMX ([8]; 0.032 kg/ha): 3.5
Postemergence herbicidal rating ZEAMX ([8]; 0.062 kg/ha): 4.5
Postemergence herbicidal rating CHEAL ([9]; 0.008 kg/ha): 3.0
Postemergence herbicidal rating CHEAL ([9]; 0.016 kg/ha): 3.0
Postemergence herbicidal rating CHEAL ([9]; 0.032 kg/ha): 3.0
Postemergence herbicidal rating CHEAL ([9]; 0.062 kg/ha): 4.0
Postemergence herbicidal rating ABUTH ([10]; 0.008 kg/ha): 3.0
Postemergence herbicidal rating ABUTH ([10]; 0.016 kg/ha): 9.0
Postemergence herbicidal rating ABUTH ([10]; 0.032 kg/ha): 9.0
Postemergence herbicidal rating ABUTH ([10]; 0.062 kg/ha): 9.0
CHEAL herbicidal rating ([11]; rate 0.016 kg/ha): 0.0
CHEAL herbicidal rating ([11]; rate 0.032 kg/ha): 0.0
CHEAL herbicidal rating ([11]; rate 0.062 kg/ha): 9.0
CHEAL herbicidal rating ([11]; rate 0.125 kg/ha): 9.0
SETVI herbicidal rating ([12]; rate 0.016 kg/ha): 0.0
SETVI herbicidal rating ([12]; rate 0.032 kg/ha): 0.0
SETVI herbicidal rating ([12]; rate 0.062 kg/ha): 9.0
SETVI herbicidal rating ([12]; rate 0.125 kg/ha): 9.0
Postemergence herbicidal rating GLXMAW ([13]; 0.008 kg/ha): 3.0
Postemergence herbicidal rating GLXMAW ([13]; 0.016 kg/ha): 3.5
Postemergence herbicidal rating GLXMAW ([13]; 0.032 kg/ha): 4.0
Postemergence herbicidal rating GLXMAW ([13]; 0.062 kg/ha): 4.0
AMBEL herbicidal rating ([14]; rate 0.016 kg/ha): 0.0
AMBEL herbicidal rating ([14]; rate 0.032 kg/ha): 0.0
AMBEL herbicidal rating ([14]; rate 0.062 kg/ha): 0.0
AMBEL herbicidal rating ([14]; rate 0.125 kg/ha): 0.0
ZEAMX herbicidal rating ([15]; rate 0.016 kg/ha): 0.0
ZEAMX herbicidal rating ([15]; rate 0.032 kg/ha): 0.0
ZEAMX herbicidal rating ([15]; rate 0.062 kg/ha): 4.0
ZEAMX herbicidal rating ([15]; rate 0.125 kg/ha): 6.0
Postemergence herbicidal rating TRZAWR ([16]; 0.008 kg/ha): 2.5
Postemergence herbicidal rating TRZAWR ([16]; 0.016 kg/ha): 2.5
Postemergence herbicidal rating TRZAWR ([16]; 0.032 kg/ha): 2.5
Postemergence herbicidal rating TRZAWR ([16]; 0.062 kg/ha): 3.5
Postemergence herbicidal rating ECHCG ([17]; 0.008 kg/ha): 0.0
Postemergence herbicidal rating ECHCG ([17]; 0.016 kg/ha): 0.0
Postemergence herbicidal rating ECHCG ([17]; 0.032 kg/ha): 0.0
Postemergence herbicidal rating ECHCG ([17]; 0.062 kg/ha): 0.0
ORYSAT herbicidal rating ([18]; rate 0.016 kg/ha): 0.0
ORYSAT herbicidal rating ([18]; rate 0.032 kg/ha): 0.0
ORYSAT herbicidal rating ([18]; rate 0.062 kg/ha): 1.0
ORYSAT herbicidal rating ([18]; rate 0.125 kg/ha): 1.0
ABUTH herbicidal rating ([19]; rate 0.016 kg/ha): 0.0
ABUTH herbicidal rating ([19]; rate 0.032 kg/ha): 6.0
ABUTH herbicidal rating ([19]; rate 0.062 kg/ha): 9.0
ABUTH herbicidal rating ([19]; rate 0.125 kg/ha): 9.0
TRZAWR herbicidal rating ([20]; rate 0.016 kg/ha): 0.0
TRZAWR herbicidal rating ([20]; rate 0.032 kg/ha): 0.0
TRZAWR herbicidal rating ([20]; rate 0.062 kg/ha): 1.0
TRZAWR herbicidal rating ([20]; rate 0.125 kg/ha): 1.0
Postemergence herbicidal rating CASOB ([21]; 0.008 kg/ha): 0.0
Postemergence herbicidal rating CASOB ([21]; 0.016 kg/ha): 0.0
Postemergence herbicidal rating CASOB ([21]; 0.032 kg/ha): 0.0
Postemergence herbicidal rating CASOB ([21]; 0.062 kg/ha): 0.0
Postemergence herbicidal rating IPOHE ([22]; 0.008 kg/ha): 0.0
Postemergence herbicidal rating IPOHE ([22]; 0.016 kg/ha): 3.0
Postemergence herbicidal rating IPOHE ([22]; 0.032 kg/ha): 4.0
Postemergence herbicidal rating IPOHE ([22]; 0.062 kg/ha): 4.0
Postemergence herbicidal rating ORYSAT ([23]; 0.008 kg/ha): 2.0
Postemergence herbicidal rating ORYSAT ([23]; 0.016 kg/ha): 2.0
Postemergence herbicidal rating ORYSAT ([23]; 0.032 kg/ha): 2.0
Postemergence herbicidal rating ORYSAT ([23]; 0.062 kg/ha): 2.5
CASOB herbicidal rating ([24]; rate 0.016 kg/ha): 0.0
CASOB herbicidal rating ([24]; rate 0.032 kg/ha): 0.0
CASOB herbicidal rating ([24]; rate 0.062 kg/ha): 0.0
CASOB herbicidal rating ([24]; rate 0.125 kg/ha): 0.0
